Structures are written as SMILES.

A short description of data set [1]: Particle size and PDI of lipid nanoparticles by dynamic light scattering. To be noted: lipid nanoparticles with luciferase mRNA; ionizable lipid/cholesterol/DSPC/DMG-PEG2000 50/38.5/10/1.5 mol%. Type of data set: physicochemical. An outline of the steps: (§1)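 LNPs of ionizable lipid/cholesterol/phospholipid/PEG-lipid (50/38.5/10/1.5 mol%, N/P 6) were formed by microfluidic mixing with mRNA in pH 4.5 acetate, then buffer-exchanged by ultrafiltration. Size and PDI were measured by DLS. Encapsulation came from RiboGreen fluorescence (485/528 nm) in TE pH 7.5, with and without 0.5% Triton at 37 °C for 30 min.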

A short description of data set [2]: Encapsulation efficiency of lipid nanoparticles (Quant-it RiboGreen RNA Assay). To be noted: lipid nanoparticles with luciferase mRNA. Type of data set: physicochemical. In a few lines: as §1
The subject of the next data set is C57BL/6 mice. Put plainly: In vivo delivery of luciferase mRNA lipid nanoparticles in mice (bioluminescence imaging). To be noted: intravenous, single dose 0.5 mg/kg luciferase mRNA. An outline of the steps:
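Female C57BL/6 mice, 6-8 weeks old, received luciferase mRNA lipid nanoparticles as a single intravenous dose of 0.5 mg/kg mRNA. At 6 h, D-luciferin given intraperitoneally; 10 min later, mice were imaged under isoflurane anaesthesia. Values are group mean fluorescence intensity and total photon count.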

Data set [3] in a line: Clearance rate of ionizable lipids in vivo (liver content by LC-MS/MS). Conditions: C57 WT female mice, tail vein, 100 μL unloaded LNP (0.1 mg/mL). How it is done:
The 6-8 weeks old C57 WT female mice (n=3) were injected by tail vein administration of 100 μL of unloaded LNP (0.1 mg/mL) formed from the ionizable lipid, cholesterol, DSPC, and DMG-PEG 2000 at a ratio of 50:38.5:10:1.5. The experimental animals were executed by removing the cervical vertebrae and dissected for the liver at 24 h and 72 h after administration, respectively, while the same batch of non-dosed experimental animal livers were used as a blank control group. Water was added to the liver sample for homogenization, and the protein was precipitated. The content of the ionizable lipid in the sample was quantitatively analyzed using LC-MS/MS in comparison to a calibration standard prepared from matched blank liver tissues.

Take `CCCCCCCCCOC(=O)CCCCCCCN(CCO)CCCCCCC(C)(C)C(=O)OC(CCCCCCCC)CCCCCCCC` [1a]: in data set [1], the “Particle size (nm)” value is given as 113.08 nm and the “Particle-size distribution (PDI)” value was 0.022. Further, in data set [2], the “Encapsulation efficiency (%)” value is recorded as 94.61%. The “Total photon count in vivo at 6 hours after administration (Total Flux)” value (“Total photon count in vivo at 6 hours” below) in the data set with C57BL/6 mice was 3.52E+10. Further, in data set [3], the “Percentage of cationic lipids in the liver in the total dose, 24 h after administration (%)” value (from here on “Percentage … 24 h after administration (%)”) is <1% and the “Percentage of cationic lipids in the liver in the total dose, 72 h after administration (%)” value (“Percentage … 72 h after administration (%)” for short) came to 0%.

Regarding `CCCCCCCCCC(=O)OCC(C)(C)CCCCCN(CCO)CCCCCCCC(=O)OC(CCCCCCCC)CCCCCCCC` [1b], in data set [1], the “Particle size (nm)” value stood at 88.59 nm and the “Particle-size distribution (PDI)” value is recorded as 0.031. The “Encapsulation efficiency (%)” value in data set [2] was found to be 89.89%. The “Total photon count in vivo at 6 hours” value in the data set on C57BL/6 mice was 9.34E+10. In addition, in data set [3], the “Percentage … 24 h after administration (%)” value was 15 ± 4.2% and the “Percentage … 72 h after administration (%)” value is recorded as <1%.

Regarding `CCCCCCCCCC(=O)OCC(C)(C)CCCCCN(CCCCO)CCCCCCCC(=O)OC(CCCCCCCC)CCCCCCCC` [3b], in data set [1], the “Particle size (nm)” value is 102.32 nm and the “Particle-size distribution (PDI)” value came out at 0.015. Moreover, the “Encapsulation efficiency (%)” value in data set [2] is given as 74.43%. Moreover, the “Total photon count in vivo at 6 hours” value with C57BL/6 mice is given as 1.41E+11. Moreover, in data set [3], the “Percentage … 24 h after administration (%)” value was determined as 12 ± 3.8% and the “Percentage … 72 h after administration (%)” value was <1%.

As to `CCCCCCCCCOC(=O)CCCCCCCN(CCCO)CCCCCCC(C)(C)C(=O)OC(CCCCCCCC)CCCCCCCC` [4a], in data set [1], the “Particle size (nm)” value was 103.7 nm and the “Particle-size distribution (PDI)” value is on record as 0.005. Moreover, in data set [2], the “Encapsulation efficiency (%)” value is 92.87%. Further, the “Total photon count in vivo at 6 hours” value in the data set with C57BL/6 mice is 3.25E+10. For the same compound, in data set [3], the “Percentage … 24 h after administration (%)” value was <1% and the “Percentage … 72 h after administration (%)” value was determined as 0%.

For the compound `CCCCCCCCCC(=O)OCC(C)(C)CCCCCN(CCO)CCCCCCCC(=O)OCCC(CCCCCC)CCCCCC` [10b], in data set [1], the “Particle size (nm)” value is listed as 114.72 nm and the “Particle-size distribution (PDI)” value amounted to 0.052. In data set [2], the “Encapsulation efficiency (%)” value is 72.72%. In addition, the “Total photon count in vivo at 6 hours” value in the data set with C57BL/6 mice is recorded as 3.15E+10. Further, in data set [3], the “Percentage … 24 h after administration (%)” value is 5 ± 3.1% and the “Percentage … 72 h after administration (%)” value is reported as <1%.

Take `CCCCCCCCCC(=O)OCC(C)(C)CCCCCN(CCO)CCCCCCCC(=O)OCCCCC(CCCC)CCCC` [12b]: in data set [1], the “Particle size (nm)” value is 104.60 nm and the “Particle-size distribution (PDI)” value was found to be 0.031. For the same compound, the “Encapsulation efficiency (%)” value in data set [2] came to 91.04%. Moreover, in the data set with C57BL/6 mice, the “Total photon count in vivo at 6 hours” value worked out at 1.19E+10. Also, in data set [3], the “Percentage … 24 h after administration (%)” value is given as <1% and the “Percentage … 72 h after administration (%)” value was 0%.

As to `CCCCCCCCCC(=O)OCC(C)(C)CCCCCN(CCO)CCCCCCCC(=O)OCC(CCCCCCC)CCCCCCC` [13b], in data set [1], the “Particle size (nm)” value came out at 99.02 nm and the “Particle-size distribution (PDI)” value is 0.018. Besides, the “Encapsulation efficiency (%)” value in data set [2] was found to be 89.27%. Further, the “Total photon count in vivo at 6 hours” value with C57BL/6 mice is given as 1.81E+11. Further, in data set [3], the “Percentage … 24 h after administration (%)” value came to 8 ± 2.7% and the “Percentage … 72 h after administration (%)” value was <1%.

As to `CCCCCCCCCC(=O)OCC1(CCCCCN(CCO)CCCCCCCC(=O)OCC(CCCCCCC)CCCCCCC)CC1` [22b], in data set [1], the “Particle size (nm)” value is 99.44 nm and the “Particle-size distribution (PDI)” value is on record as 0.050. Moreover, in data set [2], the “Encapsulation efficiency (%)” value was found to be 93.03%. The “Total photon count in vivo at 6 hours” value with C57BL/6 mice amounted to 8.78E+10. Further, in data set [3], the “Percentage … 24 h after administration (%)” value is 2% and the “Percentage … 72 h after administration (%)” value was <1%.

As to `CCCCCCCCCC(=O)OCCC(C)(C)CCCCCN(CCO)CCCCCCC(=O)OCC(CCCCCCCCC)CCCCCCCCC` [106b], in data set [1], the “Particle size (nm)” value turned out to be 88.22 nm and the “Particle-size distribution (PDI)” value is on record as 0.15. For the same compound, in data set [2], the “Encapsulation efficiency (%)” value worked out at 94.89%. Also, the “Total photon count in vivo at 6 hours” value with C57BL/6 mice is reported as 1.42E+11.

Take `CCCCCCCCCC(=O)OCCC(C)(C)CCCCCN(CCO)CCCCCCCCC(=O)OCC(CCCCCCC)CCCCCCC` [107b]: in data set [1], the “Particle size (nm)” value is recorded as 88.13 nm and the “Particle-size distribution (PDI)” value was 0.16. Moreover, the “Encapsulation efficiency (%)” value in data set [2] was determined as 94.05%. Besides, the “Total photon count in vivo at 6 hours” value in the data set on C57BL/6 mice was 1.98E+11.

With `CCCCCCCCCC(=O)OCCC(C)(C)CCCCCN(CCO)CCCCCCC(=O)OCCC(CCCCCCCC)CCCCCCCC` [108b], in data set [1], the “Particle size (nm)” value is 86.61 nm and the “Particle-size distribution (PDI)” value was 0.16. Besides, the “Encapsulation efficiency (%)” value in data set [2] came to 94.16%. In addition, the “Total photon count in vivo at 6 hours” value in the data set with C57BL/6 mice is given as 1.38E+11.

As to `CCCCCCCCCC(=O)OCCC(C)(C)CCCCCN(CCCCO)CCCCCCC(=O)OCCC(CCCCCCCC)CCCCCCCC` [109b], in data set [1], the “Particle size (nm)” value turned out to be 95.32 nm and the “Particle-size distribution (PDI)” value was 0.13. Moreover, the “Encapsulation efficiency (%)” value in data set [2] stood at 93.00%. Besides, the “Total photon count in vivo at 6 hours” value in the data set on C57BL/6 mice came to 1.90E+11.

For `CCCCCCCCC(=O)OCC(C)(C)CCCCCCN(CCO)CCCCCCC(=O)OCC(CCCCCCCC)CCCCCCCC` [110b], in data set [1], the “Particle size (nm)” value turned out to be 133.93 nm and the “Particle-size distribution (PDI)” value was determined as 0.21. Moreover, the “Encapsulation efficiency (%)” value in data set [2] was found to be 85.48%. For the same compound, the “Total photon count in vivo at 6 hours” value in the data set with C57BL/6 mice came out at 1.36E+11.

Take `CCCCCCCCCC(=O)OCCCC(C)(C)CCCN(CCO)CCCCCCCCC(=O)OCC(CCCCCC)CCCCCC` [111b]: in data set [1], the “Particle size (nm)” value is 187.13 nm and the “Particle-size distribution (PDI)” value turned out to be 0.21. Also, in data set [2], the “Encapsulation efficiency (%)” value is on record as 63.26%. The “Total photon count in vivo at 6 hours” value in the data set with C57BL/6 mice was 3.98E+10.

In the case of `CCCCCCCCCC(=O)OCCCC(C)(C)CCCN(CCCO)CCCCCCCCC(=O)OCC(CCCCCC)CCCCCC` [112b], in data set [1], the “Particle size (nm)” value is reported as 175.67 nm and the “Particle-size distribution (PDI)” value is on record as 0.17. Further, in data set [2], the “Encapsulation efficiency (%)” value is listed as 69.74%. The “Total photon count in vivo at 6 hours” value with C57BL/6 mice was 1.31E+10.

Consider `CCCCCCCCCC(=O)OCCCC(C)(C)CCCN(CCCCO)CCCCCCCCC(=O)OCC(CCCCCC)CCCCCC` [113b], for which, in data set [1], the “Particle size (nm)” value is on record as 147.03 nm and the “Particle-size distribution (PDI)” value turned out to be 0.09. In data set [2], the “Encapsulation efficiency (%)” value worked out at 88.21%. In addition, the “Total photon count in vivo at 6 hours” value in the data set with C57BL/6 mice was 2.09E+10.

In the case of `CCCCCCCCCCC(=O)OCCCC(C)(C)CCCN(CCCO)CCCCCCC(=O)OCC(CCCCCCCCC)CCCCCCCCC` [114b], in data set [1], the “Particle size (nm)” value stood at 103.40 nm and the “Particle-size distribution (PDI)” value is 0.13. In addition, the “Encapsulation efficiency (%)” value in data set [2] is 93.55%. Besides, the “Total photon count in vivo at 6 hours” value in the data set on C57BL/6 mice turned out to be 4.53E+10.

On to `CCCCCCCCCCC(=O)OCCCC(C)(C)CCCN(CCCCO)CCCCCCC(=O)OCC(CCCCCCCCC)CCCCCCCCC` [115b], for which, in data set [1], the “Particle size (nm)” value turned out to be 100.25 nm and the “Particle-size distribution (PDI)” value came to 0.12. Besides, the “Encapsulation efficiency (%)” value in data set [2] stood at 93.91%. Also, the “Total photon count in vivo at 6 hours” value in the data set on C57BL/6 mice amounted to 3.71E+10.

Take `CCCCCCCCCCC(=O)OCCCC(C)(C)CCCN(CCCCO)CCCCCCCCC(=O)OCC(CCCCCCC)CCCCCCC` [116b]: in data set [1], the “Particle size (nm)” value is 120.13 nm and the “Particle-size distribution (PDI)” value amounted to 0.09. The “Encapsulation efficiency (%)” value in data set [2] is 90.71%. Moreover, in the data set on C57BL/6 mice, the “Total photon count in vivo at 6 hours” value is recorded as 1.96E+10.

`CCCCCCCCCC(=O)OCC(C)(C)CCCCCN(CCCCO)CCCCCCCC(=O)OCC(CCCCCCC)CCCCCCC` [117b]: in data set [1], the “Particle size (nm)” value was 151.17 nm and the “Particle-size distribution (PDI)” value was determined as 0.09. Besides, in data set [2], the “Encapsulation efficiency (%)” value came to 72.51%. For the same compound, in the data set on C57BL/6 mice, the “Total photon count in vivo at 6 hours” value is given as 1.73E+10.

For the compound `CCCCCCCCCOC(=O)C(C)(C)CCCCCCN(CCO)CCCCCCC(C)(C)C(=O)OC(CCCCCCCC)CCCCCCCC` [Control group, reference compound], the “Percentage … 24 h after administration (%)” value in data set [3] is recorded as 92 ± 3.5%. For the same compound, the “Percentage … 72 h after administration (%)” value is given as 89 ± 4.7% in data set [3] and “about 90%” in data set [3] (listed as control group).
